MIC data for six compounds are collected here from DBAASP.

Some test systems named below: Escherichia coli K91BK; Campylobacter coli; Acinetobacter baumannii; Campylobacter lari; Campylobacter jejuni; Carnobacterium mobile; Fusarium oxysporum; Proteus vulgaris.
Common to all, as to experiment: ≥ marks a high value that may be exact or a test limit, other limits are often not marked, values filed in µg/mL are converted to µM
Experiment [1] has as its system Enterococcus faecalis WHO 14.
Experiment [2] relates to Micrococcus luteus ATCC 4698.
For experiment [3], the system named is Yersinia enterocolitica ATCC 9610.
In experiment [4] the test system is Bacillus subtilis ICTA-07.
The subject of experiment [5] is Pseudomonas aeruginosa ATCC 27853.
Experiment [6] deals with Acinetobacter calcoaceticus ATCC 2305-5.
Experiment [7] deals with Staphylococcus aureus FDA 209P.
For experiment [8], the system named is Escherichia coli NIHJ JC-2.
The subject of experiment [9] is Pseudomonas aeruginosa U-31.
The test system of experiment [10] is Bacillus subtilis PCI 219.
Experiment [11] deals with Bacillus anthracis Sterne 34F2.
Experiment [12] relates to Bacillus subtilis var. niger ATCC 9372.
The test system of experiment [13] is Staphylococcus epidermidis KCTC 3096.
Experiment [14] concerns Staphylococcus aureus 4716.
Experiment [15] relates to Candida albicans TIMM 1768.
Experiment [16] relates to Staphylococcus aureus KCTC 1621.
Experiment [17] concerns Escherichia coli KCTC 1682.
The test system of experiment [18] is Bacillus subtilis KCTC 1918.
The test system of experiment [19] is Staphylococcus aureus 3551.
Experiment [20] deals with Acinetobacter baumannii KCTC 2508.
Experiment [21] concerns Pseudomonas aeruginosa KCTC 1637.
In experiment [22] the test system is Bacillus subtilis ATCC 6633.
Experiment [23] relates to Salmonella typhimurium KCTC 1926.
Experiment [24] concerns Staphylococcus aureus 1870.
Experiment [25] relates to Streptococcus pyogenes KCTC 3096.
Experiment [26] concerns Pseudomonas aeruginosa 3552.
The subject of experiment [27] is Trichosporon beigelii KCTC 7707.
Experiment [28] concerns Escherichia coli ATCC 33694.
The test system of experiment [29] is Bacillus megaterium KCTC 1096.

Values after ≈ are worked out from the molar mass of the structure shown. Values joined by “and” are separate entries in the source; they are usually repeats but may differ in a detail not shown here. Equal values may be shown once. Where only a bound is given, the exact number is not on record here.

With `CSCC[C@@H]1NC(=O)[C@H](Cc2c[nH]c3ccccc23)NC(=O)[C@H](C)NC(=O)[C@H](Cc2ccc(O)cc2)NC(=O)[C@@H]2CSSC[C@@H]3NC(=O)[C@H](CO)NC(=O)[C@H](Cc4ccc(O)cc4)NC(=O)[C@H](CCCCN)NC(=O)[C@@H](NC(=O)CNC(=O)[C@H](CC(=O)O)NC(=O)[C@H](CC(N)=O)NC(=O)CNC(=O)[C@@H](NC(=O)[C@H](CC(C)C)NC(=O)[C@H](Cc4ccc(O)cc4)NC(=O)CNC(=O)[C@H](CC(=O)O)NC(=O)[C@@H](N)CCCCN)C(C)C)CSSC[C@@H](C(=O)NCC(=O)N[C@@H](CCCN=C(N)N)C(N)=O)NC(=O)[C@H](CCCN=C(N)N)NC(=O)[C@H](CC(N)=O)NC(=O)[C@H]([C@@H](C)O)NC(=O)[C@H](C)NC(=O)[C@H](CCCN=C(N)N)NC(=O)[C@H](CC(N)=O)NC(=O)[C@H](Cc4c[nH]c5ccccc45)NC(=O)[C@H]([C@@H](C)O)NC(=O)[C@H](CCCCN)NC(=O)[C@H](C(C)C)NC(=O)[C@H](Cc4c[nH]c5ccccc45)NC(=O)[C@H](CC(N)=O)NC(=O)[C@@H]4CCCN4C(=O)[C@H](CCSC)NC(=O)[C@H](CO)NC(=O)[C@H](Cc4ccc(O)cc4)NC(=O)[C@@H]4CSSC[C@H](NC(=O)[C@H](CCC(=O)O)NC(=O)[C@H](CC(N)=O)NC(=O)[C@H](C)NC(=O)[C@H](CSSC[C@H](NC(=O)[C@H](C)NC1=O)C(=O)N[C@@H](Cc1ccc(O)cc1)C(=O)N4)NC(=O)[C@H](Cc1ccc(O)cc1)NC(=O)[C@H]([C@@H](C)O)NC(=O)CNC(=O)[C@@H]1CCCN1C(=O)[C@H](CCCN=C(N)N)NC(=O)[C@H]([C@@H](C)O)NC(=O)[C@H](Cc1ccccc1)NC3=O)C(=O)N[C@@H](CO)C(=O)N[C@@H](CCCN=C(N)N)C(=O)N[C@@H](C(C)C)C(=O)N[C@@H](CCCCN)C(=O)NCC(=O)N[C@@H](CCCCN)C(=O)N[C@@H](CC(=O)O)C(=O)NCC(=O)N[C@@H](Cc1ccc(O)cc1)C(=O)N2` [KDGYLVGNDGCKYSCFTRPGTYCANECSRVKGKDGYCYAWMACYCYSMPNWVKTWNRATNRCGR], the MIC in experiment [1] is ≥ 65 µM; in [2] it was 27 µM (≈ 199 µg/mL); in experiment [3] it was ≥ 46 µM; in [4], 30 µM (≈ 221 µg/mL); in experiment [5], 54 µM (≈ 398 µg/mL); in experiment [6], 27 µM (≈ 199 µg/mL).
Consider `CC(C)C[C@H](NC(=O)[C@H](CC(C)C)NC(=O)[C@H](CC(C)C)NC(=O)[C@H](CCCCN)NC(=O)[C@H](CC(C)C)NC(=O)[C@H](CC(C)C)NC(=O)[C@H](CCCCN)NC(=O)[C@H](CC(C)C)NC(=O)[C@H](Cc1c[nH]c2ccccc12)NC(=O)[C@H](CC(C)C)NC(=O)[C@H](CCCCN)NC(=O)[C@H](CC(C)C)NC(=O)[C@H](CC(C)C)NC(=O)[C@H](CC(C)C)NC(=O)[C@H](CCCCN)NC(=O)[C@H](CC(C)C)NC(=O)[C@H](CC(C)C)NC(=O)[C@@H](N)CCCCN)C(=O)O` [KLLKLLLKLWLKLLKLLL], for which the MIC in [7], in experiment [8], in [9] and in experiment [10] was ≥ 45.4 µM in each case.
Take `CC(=O)N[C@@H](CCCCN)C(=O)N[C@@H](Cc1c[nH]c2ccccc12)C(=O)N[C@@H](CCCCN)C(=O)N[C@@H](CCCCN)C(=O)N[C@@H](CC(C)C)C(=O)N1CCC[C@H]1C(=O)N[C@@H](CCCCN)C(=O)N[C@@H](CCCCN)C(=O)N[C@@H](CC(C)C)C(=O)N[C@@H](CC(C)C)C(=O)N[C@@H](CCCCN)C(=O)N[C@@H](CC(C)C)C(=O)N[C@@H](CC(C)C)C(N)=O` [KWKKLPKKLLKLL]: the values for the MIC (in [11]; in experiment [12]; against Escherichia coli K91BK) were ≥ 100 µM, 8.84 µM (≈ 14.8 µg/mL) and ≥ 100 µM, respectively.
As for `CC[C@H](C)[C@H](NC(=O)CNC(=O)[C@@H](NC(=O)[C@H](CCCCN)NC(=O)[C@H](CCCCN)NC(=O)[C@H](Cc1ccccc1)NC(=O)[C@H](CC(C)C)NC(=O)[C@H](CCCCN)NC(=O)[C@H](Cc1c[nH]c2ccccc12)NC(=O)[C@@H](N)CCCCN)[C@@H](C)CC)C(=O)NCC(=O)N[C@@H](CCCCN)C(=O)N[C@@H](Cc1ccccc1)C(=O)N[C@@H](CC(C)C)C(=O)N[C@@H](Cc1cnc[nH]1)C(=O)N[C@@H](CO)C(=O)N[C@@H](C)C(=O)N[C@@H](CCCCN)C(=O)N[C@@H](CCCCN)C(=O)N[C@@H](Cc1ccccc1)C(N)=O` [KWKLFKKIGIGKFLHSAKKF], the MIC in [13] is 2.21 µM (≈ 5.3 µg/mL); in experiment [14] it was 4 µM (≈ 9.62 µg/mL); in experiment [15], 12.5 µM (≈ 30.1 µg/mL); in the experiment on Campylobacter coli it was 29.4 µM (≈ 70.7 µg/mL); against Acinetobacter baumannii, 6.25 µM (≈ 15 µg/mL); in the experiment on Campylobacter lari, 20.8 µM (≈ 50 µg/mL). Moreover, the MIC in the experiment on Campylobacter jejuni worked out at 20.8 µM (≈ 50 µg/mL); in [16] it was 3.12 µM (≈ 7.51 µg/mL); in [17] it was 3.12 µM (≈ 7.51 µg/mL); in experiment [18], 0.78 µM (≈ 1.88 µg/mL); in [19], 1 µM (≈ 2.4 µg/mL); in experiment [20] it was 12.5 µM (≈ 30.1 µg/mL). Besides, the MIC in experiment [21] is 1.56 µM (≈ 3.75 µg/mL); in experiment [22] it was 1.1 µM (≈ 2.65 µg/mL); in [23] it was 0.78 µM (≈ 1.88 µg/mL); in experiment [24] it was ≥ 64 µM; in [25], 0.78 µM (≈ 1.88 µg/mL); in experiment [26] it was 8 µM and 4 µM. The minimal inhibitory concentration (MIC) in experiment [27] and in experiment [28] was 6.25 µM (≈ 15 µg/mL) in each case.
On to `CSCC[C@H](N)C(=O)N[C@@H](C)C(=O)N[C@@H](CO)C(=O)N[C@@H](CCCN=C(N)N)C(=O)N[C@@H](C)C(=O)N[C@@H](C)C(=O)NCC(=O)N[C@@H](CC(C)C)C(=O)N[C@@H](C)C(=O)N[C@@H](C)C(=O)N[C@@H](CCCN=C(N)N)C(=O)N[C@@H](CC(C)C)C(=O)N[C@@H](C)C(=O)N[C@@H](CCCN=C(N)N)C(=O)N[C@@H](CC(C)C)C(=O)N[C@@H](C)C(=O)N[C@@H](CC(C)C)C(=O)N[C@@H](CCCN=C(N)N)C(=O)N[C@@H](C)C(=O)N[C@@H](CC(C)C)C(=O)O` [MASRAAGLAARLARLALRAL], for which the results for the MIC with Carnobacterium mobile and against Fusarium oxysporum were 0.05 µM (≈ 0.103 µg/mL) and 1 µM (≈ 2.05 µg/mL), respectively.
For the compound `CC[C@H](C)[C@H](NC(=O)[C@H](CCCCN)NC(=O)[C@H](CCCCN)NC(=O)[C@@H](N)Cc1c[nH]c2ccccc12)C(=O)N1CCC[C@H]1C(=O)N[C@@H](CCCCN)C(=O)N[C@@H](Cc1ccccc1)C(=O)N[C@@H](CC(C)C)C(=O)N[C@@H](Cc1cnc[nH]1)C(=O)N[C@@H](CC(C)C)C(=O)N[C@@H](CC(C)C)C(=O)N[C@@H](CCCCN)C(=O)N[C@@H](CCCCN)C(=O)N[C@@H](Cc1ccccc1)C(N)=O` [WKKIPKFLHLLKKF], the MIC in experiment [16] was determined as 3.12 µM (≈ 5.7 µg/mL); in experiment [17], 6.25 µM (≈ 11.4 µg/mL); in experiment [18], 0.78 µM (≈ 1.42 µg/mL); in experiment [29], 1.56 µM (≈ 2.85 µg/mL); in [21], 3.12 µM (≈ 5.7 µg/mL); against Proteus vulgaris, 12.5 µM (≈ 22.8 µg/mL).

As a reminder, the MIC is the least concentration at which growth counts as inhibited.
